Target: PKM2 (Homo sapiens, UniProt P14618)
Experiment: Cell-Based Pyruvate Kinase Activity Assay, NCI-H1299
Design: host or cells: A549 or NCI-H1299 lung cancer cells
Conditions: NCI-H1299, 30 minutes with compound, n = 4; read-out: Cellular PKM2 activation EC50
Procedure: Cell-Based Pyruvate Kinase Activity Assay
A549 or NCI-H1299 lung cancer cells were plated at 20,000 cells per well (96-well plate) in MEM media plus 10% FBS, with no additional glutamine or pyruvate. Following overnight incubation, cells were washed with PBS followed by 4 hour incubation in MEM media. Compounds were added to the cells in 1% final concentration DMSO. After 30 minutes, cells were lysed, and pyruvate kinase activity in lysates was determined by Pyruvate Kinase Activity Assay (BioVision, Milpitas, Calif.). Maximum velocity values were calculated from the kinetic data, and AC50 values were determined using Prism GraphPad Software (La Jolla, Calif.). Compound washout experiments were as described above, except after a 30 minute incubation with Example 244 (469 nM), the cells were washed with PBS followed by the addition of MEM media for the indicated time period, lysed and pyruvate kinase activity determined. Results are tabulated in Table 3 and presented graphically in FIGS. 6A and 6B.

PKM2, sequence (P14618 2-531 limits assumed): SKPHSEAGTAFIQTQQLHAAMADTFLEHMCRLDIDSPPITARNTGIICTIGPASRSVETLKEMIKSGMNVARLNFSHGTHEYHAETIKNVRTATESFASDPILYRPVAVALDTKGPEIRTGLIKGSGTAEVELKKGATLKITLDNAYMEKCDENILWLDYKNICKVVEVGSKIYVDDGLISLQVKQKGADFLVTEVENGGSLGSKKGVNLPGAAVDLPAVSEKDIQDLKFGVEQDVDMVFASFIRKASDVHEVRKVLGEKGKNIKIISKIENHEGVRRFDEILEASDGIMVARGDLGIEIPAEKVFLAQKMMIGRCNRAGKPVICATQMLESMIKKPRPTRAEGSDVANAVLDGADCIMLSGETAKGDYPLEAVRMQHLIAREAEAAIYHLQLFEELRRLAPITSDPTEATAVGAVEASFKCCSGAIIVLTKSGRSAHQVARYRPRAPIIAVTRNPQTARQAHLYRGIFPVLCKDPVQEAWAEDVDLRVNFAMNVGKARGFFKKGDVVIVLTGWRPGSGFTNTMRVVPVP

Q: How did the EC50 turn out when `O=C(c1cc(C(F)(F)F)n[nH]1)N(Cc1ccc(O)cc1F)CC1CCC1` [Example 1, N-(cyclobutylmethyl)-N-(2-fluoro-4-hydroxybenzyl)-3-(trifluoromethyl)-1H-pyrazole-5-carboxamide] was run?
A: Its EC50 is 220 ± 50 nM.
